As usually defined, the Cmax is the highest concentration seen after dosing. One may read the MIC as the smallest concentration in the dilution series that meets the test's criterion for growth inhibition. Low readings indicate a more susceptible organism, high ones a less susceptible organism.

Here are results for 4 molecules from ChEMBL document CHEMBL1255322, “In vivo therapeutic effect of gatifloxacin on BALB/c mice infected with Nocardia brasiliensis” (Antimicrob Agents Chemother, 2008).

The subject of data set [1] is Nocardia brasiliensis. The data set is described as follows: Antimicrobial activity against Nocardia brasiliensis HUJEG-1 by broth macrodilution method. Format: functional.
The nature of data set [2]: Cmax in BALB/c mouse serum at 100 mg/kg, sc TID for 4 weeks by HPLC method. Format: ADME, organism-based. On the set-up: dose 100 mg/kg, route subcutaneous.
In data set [3] the test system is Nocardia brasiliensis. The data set is described as follows: Antimicrobial activity against Nocardia brasiliensis HUJEG-1 infected in BALB/c mouse assessed as decrease in number of lesions on foot-pad at 100 mg/kg, sc TID for 4 weeks. Format: functional, organism-based. On the set-up: dose 100 mg/kg.
A short description of data set [4]: Cmax in BALB/c mouse serum at 25 mg/kg, sc TID for 4 weeks by HPLC method. It is filed as ADME, organism-based. On the set-up: dose 25 mg/kg, route subcutaneous.
In data set [5] the test system is Nocardia brasiliensis. The data set is described as follows: Antimicrobial activity against Nocardia brasiliensis HUJEG-1 infected in BALB/c mouse assessed as decrease in number of lesions on foot-pad at 25 mg/kg, sc TID for 4 weeks. Format: functional, organism-based. On the set-up: dose 25 mg/kg.

≈ marks a conversion by molar mass, not a printed value. Calls of active or inactive are those of the source.

For `COc1c(N2C[C@@H]3CCCN[C@@H]3C2)c(F)cc2c(=O)c(C(=O)O)cn(C3CC3)c12`, in the data set with Nocardia brasiliensis [1], the outcome was Active.

In the case of `C[C@H]1NCc2cc(-c3ccc4c(=O)c(C(=O)O)cn(C5CC5)c4c3OC(F)F)ccc21`, the result with Nocardia brasiliensis [1] was Active.

For the molecule `COc1c(N2CCNC(C)C2)c(F)cc2c(=O)c(C(=O)O)cn(C3CC3)c12` (stereo not drawn) [GATIFLOXACIN], in data set [2], the highest level (Cmax) was 18000 ng/mL. Besides, the outcome in the data set with Nocardia brasiliensis [3] was Active. In the data set on Nocardia brasiliensis [1], this molecule registered a minimum inhibitory concentration (MIC) of 0.25 µg/mL (≈ 0.666 µM).

Molecule `CC(=O)NC[C@H]1CN(c2ccc(N3CCOCC3)c(F)c2)C(=O)O1` [LINEZOLID] registered a maximum concentration (Cmax) in data set [4] of 50000 ng/mL. In addition, the result in the data set on Nocardia brasiliensis [5] was inactive. Also, the minimal inhibitory concentration (MIC) in the data set on Nocardia brasiliensis [1] turned out to be 0.12 µg/mL (≈ 0.356 µM).
